# Reference: patent US12011455B2, “Enhancing plasmin activity to prevent soft tissue calcification” (Vanderbilt University, priority 2016, dated 2024)
# Test system: CTX-injured skeletal muscle of mice
# Experiment: Cardiotoxin-induced muscle injury model, radiographic/μCT soft tissue calcification and HO
# Assay type: in vivo, mouse
# Conditions: Plg+/− mice, 7 DPI, vs control
# Method: Cardiotoxin-Induced Muscle Injury Model: Skeletal muscle injury was induced by an intramuscular injection of 40 μL of 10 nM Cardiotoxin (CTX, Accurate Chemical and Scientific Corp; Westbury, NY) in the posterior compartments of the lower extremities of male C57/B6 mice. Briefly, following anesthetization with Isoflurane, CTX was injected into the lateral aspect of the posterior compartment using a 28.5 G, 0.5 cc insulin syringe. The CTX induces massive local myocyte depolarization, leading to myocyte death. However, muscle resident stem cells are unaffected by the CTX, thereby allowing for muscle regeneration following injury. […]
# Radiographic Analysis and Quantification of HO: Quantification was performed as described. […] These images underwent post-image standardization and were quantified with the previously validated heterotopic ossification scoring scale. […] A blinded reviewer assessed all scores (a score of 1=0-24%, a score of 2=25%-49%, a score of 3=50%-74%, and a score of 4=>75% of the lower extremity containing radiographically evident HO).
# Ex vivo μCT Imaging and Quantification of HO: μCT mages were acquired (μCT40, Scanco Medical AG, Bassersdorf, Switzerland) following specimen harvest of injured hindlimbs at 55 kVp, 145 uA, 200 ms integration, 500 projections per 180° rotation, with a 20 μm isotropic voxel size. […] Mineral volume was then calculated using the Scanco evaluation software.
substance,measurement,setting,value
"Fbg^ASO: Fibrinogen antisense oligonucleotide GCTTTGATCAGTTCTTTGGC; phosphorothioate backbone, 2′ O methoxyethyl wings (all phosphorothioate, sugars by position and methylation of C not given here; 2'-O-methoxyethyl wings)",soft tissue calcification after CTX injury (μCT/radiographs),,failed to prevent soft tissue calcification
same,soft tissue calcification after CTX injury (μCT/radiographs),listed as fibrinogen^ASO,marked soft tissue calcification formation
